For one assay, the system named is NCI/ADR-RES. Briefly: Compound activity in a P-gp overexpressing cell line NCI/ADR-RES. Conditions: for IC50: P-gp overexpressing cell line. The format is cell-based.
The next assay deals with OVCAR-8. Description: Compound activity in OVCAR-8 cell line. In kind it is cell-based. Conditions: for IC50: OVCAR-8, read-out: OVCAR-8 IC50 (nM) ± SD.
Another assay relates to MIA PaCa-2. Description: MIA PaCa-2 cell line activity. In kind it is cell-based. Particulars: Table 2, read-out: MIA PaCa-2 (nM ± SD).
The subject of a further assay is MCF-7/TAX Pgp. Description: MCF-7/TAX (Pgp) cell activity. The format is cell-based. Conditions: for EC50: Homo sapiens, MCF7.
The subject of a further assay is MCF-7 WT. Description: MCF-7 WT cell activity. In kind it is cell-based. Conditions: Homo sapiens, MCF7.
For a further assay, the system named is MCF-7-TUBB3 β3-tubulin. Description: MCF-7-TUBB3 (β3-tubulin) cell activity. The format is cell-based.
A further assay addresses tubulin (Bos taurus, UniProt P81947+Q6B856). Description: Inhibition of [3H]colchicine binding to tubulin.
[1] abbreviates: Homo sapiens, NCI/ADR-RES, Table 1, read-out: NCl/ADR-RES IC50 (nM) ± SD.
Setting [2] is: Homo sapiens, NCI/ADR-RES, Table 2, read-out: NCI/ADR-RES IC50 (nM) ± SD.

A word on the EC50: it is the concentration at which the effect is half-maximal.

Structures are written as SMILES. Read-outs that look alike come from different tables or passages of the source. Where only a bound is given, the exact number is not on record here.

tubulin, sequence (Q6B856 whole entry): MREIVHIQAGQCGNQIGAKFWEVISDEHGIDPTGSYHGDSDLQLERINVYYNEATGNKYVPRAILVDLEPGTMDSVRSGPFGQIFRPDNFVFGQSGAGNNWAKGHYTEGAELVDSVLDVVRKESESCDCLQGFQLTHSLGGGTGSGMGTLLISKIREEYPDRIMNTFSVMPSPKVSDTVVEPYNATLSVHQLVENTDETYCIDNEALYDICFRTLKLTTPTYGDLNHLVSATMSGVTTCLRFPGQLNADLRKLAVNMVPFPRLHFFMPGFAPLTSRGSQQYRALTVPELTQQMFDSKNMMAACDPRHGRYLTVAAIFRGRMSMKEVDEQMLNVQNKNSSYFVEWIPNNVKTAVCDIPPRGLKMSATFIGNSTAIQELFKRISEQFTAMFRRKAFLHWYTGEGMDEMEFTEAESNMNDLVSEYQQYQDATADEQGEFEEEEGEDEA
tubulin, sequence (P81947 whole entry): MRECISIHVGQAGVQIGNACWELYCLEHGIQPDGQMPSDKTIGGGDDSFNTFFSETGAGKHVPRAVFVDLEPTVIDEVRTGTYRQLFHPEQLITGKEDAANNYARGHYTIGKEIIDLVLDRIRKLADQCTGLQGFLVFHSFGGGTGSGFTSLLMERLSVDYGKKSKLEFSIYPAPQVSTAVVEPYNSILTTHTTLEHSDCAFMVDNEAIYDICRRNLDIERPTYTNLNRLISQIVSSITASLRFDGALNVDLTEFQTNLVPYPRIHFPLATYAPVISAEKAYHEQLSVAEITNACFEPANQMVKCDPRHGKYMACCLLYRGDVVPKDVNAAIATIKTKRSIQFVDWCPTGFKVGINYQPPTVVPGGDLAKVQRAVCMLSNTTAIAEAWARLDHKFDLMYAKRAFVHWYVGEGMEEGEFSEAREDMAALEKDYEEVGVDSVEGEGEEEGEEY

Consider `COc1ccc(/C=C\c2cc(OC)c(OC)c(OC)c2)cc1O` [CS-A4, Combretastatin A-4, reference compound], for which the IC50 in the assay on NCI/ADR-RES (Table 1, read-out: NCl/ADR-RES IC50 (nM) ± SD) worked out at 2.3 ± 0.4 nM; in the assay on NCI/ADR-RES (Table 2, read-out: NCI/ADR-RES IC50 (nM) ± SD) it was 2.3 ± 0.4 nM; with OVCAR-8 (Table 1) it was 3.5 ± 0.7 nM; with OVCAR-8 (Table 2), 3.5 ± 0.7 nM.
With `COc1ccc(N(C)c2nc(Cl)nc3cnn(C)c23)cc1` [Compound 4, 5-chloro-N-(4-methoxyphenyl)-N,1-dimethyl-1H-pyrazolo[4,3-d]pyrimidin-7-amine], the IC50 in the assay on NCI/ADR-RES (setting [1]) turned out to be 5 nM; with NCI/ADR-RES (setting [2]), 5 nM; in the assay with OVCAR-8 (Homo sapiens, Table 1), 9 ± 0.7 nM; in the assay with MIA PaCa-2 (Homo sapiens) it was 22.7 ± 1.13 nM. The results for the EC50 in the assay with MCF-7/TAX Pgp, in the assay with MCF-7 WT and in the assay with MCF-7-TUBB3 β3-tubulin were 15.1 ± 2 nM, 2 ± 0.3 nM and 3.3 ± 0.4 nM, respectively. In addition, in the assay on MCF-7/TAX Pgp (MCF-7/TAX vs MCF-7 WT), the “RESISTANCE RATIO Pgp/WT” value is on record as 3.8. The “RESISTANCE RATIO β3-tubulin/WT” value in the assay on MCF-7-TUBB3 β3-tubulin (MCF-7-TUBB3 vs MCF-7 WT) was found to be 1.1.
As for `CSc1ccc(N(C)c2nc(Cl)nc3cnn(C)c23)cc1` [Compound 5, 5-chloro-N,1-dimethyl-N-(4-(methylthio)phenyl)-1H-pyrazolo[4,3-d]pyrimidin-7-amine], the IC50 with NCI/ADR-RES (setting [1]) came out at 17 ± 3 nM; in the assay with NCI/ADR-RES (setting [2]) it was 17 ± 3 nM; in the assay with OVCAR-8 (Homo sapiens, Table 1) it was 31 ± 2 nM; in the assay with MIA PaCa-2 (Homo sapiens) it was 20.9 ± 0.651 nM.
`COc1ccc2c(c1)CCCN2c1nc(Cl)nc2cnn(C)c12` [Compound 6, 1-(5-chloro-1-methyl-1H-pyrazolo[4,3-d]pyrimidin-7-yl)-6-methoxy-1,2,3,4-tetrahydroquinoline]: the IC50 with NCI/ADR-RES (setting [1]) worked out at 8 ± 0.7 nM; in the assay on NCI/ADR-RES (setting [2]), 8 ± 0.7 nM; in the assay with OVCAR-8 (Homo sapiens, Table 1) it was 17 ± 2 nM; with MIA PaCa-2 (Homo sapiens), 48 ± 2.77 nM.
As to `COc1ccc(N(C)c2nc(Cl)nc3cnn(C)c23)cc1F` [Compound 6d7, 5-chloro-N-(3-fluoro-4-methoxyphenyl)-N,1-dimethyl-1H-pyrazolo[4,3-d]pyrimidin-7-amine], the IC50 in the assay with NCI/ADR-RES (setting [2]) came out at 7 ± 3 nM; in the assay on OVCAR-8 (Homo sapiens, Table 2) it was 9 ± 1 nM. For the same compound, the EC50 in the assay on MCF-7/TAX Pgp was 8.1 ± 0.2 nM; in the assay on MCF-7 WT, 1.7 ± 0.2 nM; in the assay on MCF-7-TUBB3 β3-tubulin it was 2.6 ± 0.4 nM. For the same compound, the “RESISTANCE RATIO Pgp/WT” value with MCF-7/TAX Pgp (MCF-7/TAX vs MCF-7 WT) is reported as 4.8. The “RESISTANCE RATIO β3-tubulin/WT” value with MCF-7-TUBB3 β3-tubulin (MCF-7-TUBB3 vs MCF-7 WT) is given as 1.6.
For the compound `COc1cccc2cc(N(C)c3nc(Cl)nc4cnn(C)c34)ccc12` [Compound 7, 5-chloro-N-(5-methoxynaphthalen-2-yl)-N,1-dimethyl-1H-pyrazolo[4,3-d]pyrimidin-7-amine], the IC50 with NCI/ADR-RES (setting [1]) was 11 ± 0.7 nM; with NCI/ADR-RES (setting [2]), 11 ± 0.7 nM; with OVCAR-8 (Homo sapiens, Table 1) it was 14 ± 3 nM. Also, the values for the EC50 in the assay with MCF-7/TAX Pgp, in the assay with MCF-7 WT and in the assay with MCF-7-TUBB3 β3-tubulin were 43 ± 7.2 nM, 35.2 ± 4.7 nM and 16.8 ± 1.5 nM, respectively. Besides, in the assay with MCF-7/TAX Pgp (MCF-7/TAX vs MCF-7 WT), the “RESISTANCE RATIO Pgp/WT” value came out at 1.2. In the assay on MCF-7-TUBB3 β3-tubulin (MCF-7-TUBB3 vs MCF-7 WT), the “RESISTANCE RATIO β3-tubulin/WT” value is 0.5.
As to `CCOc1ccc(N(C)c2nc(Cl)nc3cnn(C)c23)cc1` [Compound 8, 5-chloro-N-(4-ethoxyphenyl)-N,1-dimethyl-1H-pyrazolo[4,3-d]pyrimidin-7-amine], the IC50 in the assay with NCI/ADR-RES (setting [1]) was determined as 4 ± 1 nM; in the assay on NCI/ADR-RES (setting [2]), 4 ± 1 nM; in the assay with OVCAR-8 (Homo sapiens, Table 1), 2 ± 1 nM. Besides, the “fold improvement of OVCAR-8 cell line activity” value with OVCAR-8 (over compound 4) is recorded as “around 4 fold”. Further, the EC50 in the assay on MCF-7/TAX Pgp worked out at 31.3 ± 3.5 nM; in the assay on MCF-7 WT, 7.7 ± 0.7 nM; with MCF-7-TUBB3 β3-tubulin it was 9.7 ± 1 nM. Moreover, in the assay on MCF-7/TAX Pgp (MCF-7/TAX vs MCF-7 WT), the “RESISTANCE RATIO Pgp/WT” value is recorded as 4.0. The “RESISTANCE RATIO β3-tubulin/WT” value in the assay on MCF-7-TUBB3 β3-tubulin (MCF-7-TUBB3 vs MCF-7 WT) was found to be 1.3.
Turning to `CC(C)Oc1ccc(N(C)c2nc(Cl)nc3cnn(C)c23)cc1` [Compound 9, 5-chloro-N-(4-isopropoxyphenyl)-N,1-dimethyl-1H-pyrazolo[4,3-d]pyrimidin-7-amine], the IC50 in the assay on NCI/ADR-RES (setting [1]) is 44 ± 8 nM; with NCI/ADR-RES (setting [2]), 44 ± 8 nM; in the assay on OVCAR-8 (Homo sapiens, Table 1), 49 ± 10 nM.
With `CN(c1ccc(OC(F)(F)F)cc1)c1nc(Cl)nc2cnn(C)c12` [Compound 10, 5-chloro-N,1-dimethyl-N-(4-(trifluoromethoxy)phenyl)-1H-pyrazolo[4,3-d]pyrimidin-7-amine], the IC50 in the assay on NCI/ADR-RES (setting [1]) is 730 ± 100 nM; in the assay with NCI/ADR-RES (setting [2]), 730 ± 100 nM; in the assay with OVCAR-8 (Homo sapiens, Table 1), 880 ± 40 nM.
`COc1ccc(Nc2nc(Cl)nc3cnn(C)c23)cc1` [Compound 11, 5-chloro-N-(4-methoxyphenyl)-1-methyl-1H-pyrazolo[4,3-d]pyrimidin-7-amine]: the “activity in NCI/ADR-RES cell line” value with NCI/ADR-RES is recorded as “not active”. The IC50 in the assay on NCI/ADR-RES (setting [1]) is over 5000 nM; with OVCAR-8 (Homo sapiens, Table 1), over 5000 nM. For the same compound, at tubulin, the “colchicine inhibition” value was “did not show colchicine inhibition”. For the same compound, the “activity in OVCAR-8 cell line” value in the assay on OVCAR-8 was “not active”.
In the case of `Nc1ccn([C@@H]2O[C@H](CO)[C@@H](O)C2(F)F)c(=O)n1` [GEM, reference compound], the IC50 in the assay with MIA PaCa-2 came out at 297 nM.
Still for that read-out and setting: to `Nc1nc2[nH]cc(CCc3ccc(C(=O)N[C@@H](CCC(=O)O)C(=O)O)cc3)c2c(=O)[nH]1` [PMX, reference compound] belongs 16.1 ± 1.4 nM.
Consider `CC(=O)O[C@H]1C(=O)[C@@]2(C)[C@H]([C@H](OC(=O)c3ccccc3)[C@]3(O)C[C@H](OC(=O)[C@H](O)[C@@H](NC(=O)c4ccccc4)c4ccccc4)C(C)=C1C3(C)C)[C@]1(OC(C)=O)CO[C@@H]1C[C@@H]2O` [Paclitaxel, reference compound], for which the IC50 in the assay with NCI/ADR-RES (setting [1]) was over 5000 nM; in the assay on NCI/ADR-RES (setting [2]), over 5000 nM; in the assay on OVCAR-8 (Homo sapiens, Table 1) it was 7 ± 2 nM. The EC50 in the assay with MCF-7/TAX Pgp came to 3220 nM; in the assay with MCF-7 WT it was 194 nM; in the assay with MCF-7-TUBB3 β3-tubulin, 2070 nM. In addition, the “[…] Pgp/WT” value with MCF-7/TAX Pgp (MCF-7/TAX vs MCF-7 WT) is given as 16.6. Also, the “[…] β3-tubulin/WT” value with MCF-7-TUBB3 β3-tubulin (MCF-7-TUBB3 vs MCF-7 WT) amounted to 10.6.

(Values after US11897886B2, “Pyrazolo[4,3-d]pyrimidines as antitumor agents” (Duquesne University of the Holy Spirit, priority 2018, dated 2024).)
